What was measured:
NFkB-SEAP = experiment: THP1-Dual cells transfected with DNA, nfkb expression (Quantiblue); type: cell-based; conditions: Homo sapiens; for inhibition at 10 µM: THP-1, 10 μM; for inhibition at 30 µM: THP-1, 30 μM
Protocol: Evaluation of active cGAS inhibitors in THP1 cells (Table 3). Cellular activity of all compounds (in Table 3) was determined using THP1-Dual™ cells as described (Lama et. al., 2019). THP1-Dual™ cells (Invivogen) (50000 cells in 100 μl media) were seeded into each well of a 96-well plate and treated with compounds at various dilution for 4 hours. Subsequently, cells were transfected with DNA (2 ug/ml) and lipofectamine and incubate the cells were incubated overnight. Ifnb expression was measured in cell supernatant using Quantiluc, nfkb expression was determined using Quantiblue, and cell viability using Promega® CellTiter-Glo®.

THP1 cells = experiment: THP1-Dual cells, cell viability (CellTiter-Glo); type: cell-based
How it was run: (§1)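 Readouts after overnight incubation: Quantiluc luminescence for Ifnb, Quantiblue for nfkb (both in supernatant) and CellTiter-Glo for viability. Before the DNA stimulus (2 ug/ml, lipofectamine transfection), THP1-Dual cells received compound at several dilutions for 4 h.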

IFNB = experiment: THP1-Dual cells transfected with DNA, Ifnb expression (Quantiluc); type: cell-based; conditions: Homo sapiens; for inhibition at 10 µM: THP-1, 10 μM; for inhibition at 30 µM: THP-1, 30 μM
How it was run: as §1

m-cGAS = m-cGAS (Mus musculus, UniProt Q8C6L5); experiment: Cell-free mouse cGAS enzyme inhibition assay (ATP depletion, Kinase-Glo Max); type: biochemical; conditions: 1 h; for inhibition at 1 µM: read-out: m-cGAS, conc. 1 μM; for inhibition at 10 µM: read-out: m-cGAS, conc. 10 μM
Chain of m-cGAS (Q8C6L5 whole entry): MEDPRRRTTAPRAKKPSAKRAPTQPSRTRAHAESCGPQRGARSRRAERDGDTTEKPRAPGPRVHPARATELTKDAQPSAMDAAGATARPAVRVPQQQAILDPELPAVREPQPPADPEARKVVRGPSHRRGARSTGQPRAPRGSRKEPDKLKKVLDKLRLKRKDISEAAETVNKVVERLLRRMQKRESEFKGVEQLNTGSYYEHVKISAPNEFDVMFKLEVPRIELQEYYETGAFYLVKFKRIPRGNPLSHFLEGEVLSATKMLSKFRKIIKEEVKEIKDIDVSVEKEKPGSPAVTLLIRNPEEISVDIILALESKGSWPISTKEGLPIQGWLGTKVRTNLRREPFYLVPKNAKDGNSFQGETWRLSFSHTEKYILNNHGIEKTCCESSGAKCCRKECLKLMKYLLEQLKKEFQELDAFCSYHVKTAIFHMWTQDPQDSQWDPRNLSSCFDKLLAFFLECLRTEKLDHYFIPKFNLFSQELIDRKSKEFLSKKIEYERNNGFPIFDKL

h-cGAS = h-cGAS (Homo sapiens, UniProt Q8N884); experiment: Cell-free human cGAS enzyme inhibition assay (ATP depletion, Kinase-Glo Max); type: biochemical; conditions: 3 h; for inhibition at 1 µM: read-out: h-cGAS, conc. 1 μM; for inhibition at 10 µM: read-out: h-cGAS, conc. 10 μM
Chain of h-cGAS (Q8N884 whole entry): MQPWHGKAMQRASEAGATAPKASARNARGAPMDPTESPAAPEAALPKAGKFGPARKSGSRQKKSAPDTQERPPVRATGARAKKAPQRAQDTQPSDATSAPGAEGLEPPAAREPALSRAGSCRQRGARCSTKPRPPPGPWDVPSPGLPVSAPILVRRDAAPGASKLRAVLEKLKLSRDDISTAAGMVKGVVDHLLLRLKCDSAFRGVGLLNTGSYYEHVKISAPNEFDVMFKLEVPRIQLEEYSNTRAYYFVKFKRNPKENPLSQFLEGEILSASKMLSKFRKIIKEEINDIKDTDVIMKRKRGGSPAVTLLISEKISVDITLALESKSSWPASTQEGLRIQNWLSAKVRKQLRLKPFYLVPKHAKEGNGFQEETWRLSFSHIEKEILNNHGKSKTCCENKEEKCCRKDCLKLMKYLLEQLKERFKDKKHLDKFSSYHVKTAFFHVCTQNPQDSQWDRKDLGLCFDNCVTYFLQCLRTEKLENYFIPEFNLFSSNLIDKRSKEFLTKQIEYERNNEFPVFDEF

## NCC(=O)N1CCc2c(sc3c(Cl)c(Cl)cc(-n4cccn4)c23)C1 [Compound 94]
NFkB-SEAP
  inhibition at 10 µM: < 24%
THP1 cells
  Cell viability 10 μM: +++ (+, ++, and +++ mean the compound respectively shows 25-49%; 50-74%; or 75-100% viability to cells)
IFNB
  inhibition at 10 µM: < 24%
m-cGAS
  inhibition at 1 µM: 0 to 24%
  inhibition at 10 µM: 50 to 74%
h-cGAS
  inhibition at 1 µM: 25 to 49%
  inhibition at 10 µM: 50 to 74%

## CNc1cnn(-c2cc(Cl)c(Cl)c3sc4c(c23)CCN(C(=O)CN)C4)c1 [Compound 95]
NFkB-SEAP
  inhibition at 10 µM: 25 to 49%
  inhibition at 30 µM: 25 to 49%
THP1 cells
  Cell viability 10 μM: +++ (+, ++, and +++ mean the compound respectively shows 25-49%; 50-74%; or 75-100% viability to cells)
  Cell viability 30 μM: +++ (+, ++, and +++ mean the compound respectively shows 25-49%; 50-74%; or 75-100% viability to cells)
IFNB
  inhibition at 10 µM: < 24%
  inhibition at 30 µM: 25 to 49%
m-cGAS
  inhibition at 10 µM: 50 to 74%
h-cGAS
  inhibition at 10 µM: 50 to 74%

## Cc1ccn(-c2cc(Cl)c(Cl)c3sc4c(c23)CCN(C(=O)CN)C4)n1 [Compound 96]
NFkB-SEAP
  inhibition at 10 µM: < 24%
  inhibition at 30 µM: < 24%
THP1 cells
  Cell viability 10 μM: +++ (+, ++, and +++ mean the compound respectively shows 25-49%; 50-74%; or 75-100% viability to cells)
  Cell viability 30 μM: +++ (+, ++, and +++ mean the compound respectively shows 25-49%; 50-74%; or 75-100% viability to cells)
IFNB
  inhibition at 10 µM: < 24%
  inhibition at 30 µM: < 24%
m-cGAS
  inhibition at 10 µM: 25 to 49%
h-cGAS
  inhibition at 1 µM: 0 to 24%
  inhibition at 10 µM: 25 to 49%

## NCC(=O)N1CCc2c(sc3c(Cl)c(Cl)cc(-c4ccsc4)c23)C1 [Compound 82]
NFkB-SEAP
  inhibition at 10 µM: 75 to 100%
  inhibition at 30 µM: 75 to 100%
THP1 cells
  Cell viability 10 μM: +++ (+, ++, and +++ mean the compound respectively shows 25-49%; 50-74%; or 75-100% viability to cells)
  Cell viability 30 μM: + (+, ++, and +++ mean the compound respectively shows 25-49%; 50-74%; or 75-100% viability to cells)
IFNB
  inhibition at 10 µM: 50 to 74%
  inhibition at 30 µM: 75 to 100%
m-cGAS
  inhibition at 1 µM: 0 to 24%
  inhibition at 10 µM: 50 to 74%
h-cGAS
  inhibition at 1 µM: 0 to 24%
  inhibition at 10 µM: 50 to 74%

## NCC(=O)N1CCc2c(sc3c(Cl)c(Cl)cc(-c4ccc(N)nc4)c23)C1 [Compound 75]
NFkB-SEAP
  inhibition at 10 µM: < 24%
  inhibition at 30 µM: 75 to 100%
THP1 cells
  Cell viability 10 μM: +++ (+, ++, and +++ mean the compound respectively shows 25-49%; 50-74%; or 75-100% viability to cells)
  Cell viability 30 μM: +++ (+, ++, and +++ mean the compound respectively shows 25-49%; 50-74%; or 75-100% viability to cells)
IFNB
  inhibition at 10 µM: 75 to 100%
  inhibition at 30 µM: 75 to 100%
m-cGAS
  inhibition at 10 µM: 75 to 100%
h-cGAS
  inhibition at 1 µM: 0 to 24%
  inhibition at 10 µM: 50 to 74%

## O=C(CO)N1CCc2oc3c(Cl)c(Cl)ccc3c2C1 [Compound 21]
NFkB-SEAP
  inhibition at 30 µM: < 24%
THP1 cells
  Cell viability 30 μM: +++ (+, ++, and +++ mean the compound respectively shows 25-49%; 50-74%; or 75-100% viability to cells)
IFNB
  inhibition at 30 µM: < 24%
m-cGAS
  inhibition at 10 µM: 75 to 100%
h-cGAS
  inhibition at 10 µM: 25 to 49%

## Cn1ccc(-c2cc(Cl)c(Cl)c3sc4c(c23)CCN(C(=O)CN)C4)n1 [Compound 83]
NFkB-SEAP
  inhibition at 10 µM: 75 to 100%
  inhibition at 30 µM: 75 to 100%
THP1 cells
  Cell viability 10 μM: ++ (+, ++, and +++ mean the compound respectively shows 25-49%; 50-74%; or 75-100% viability to cells)
  Cell viability 30 μM: − (Cell viability <24%, in THP1 cells is expressed as “−”)
IFNB
  inhibition at 10 µM: 50 to 74%
  inhibition at 30 µM: 75 to 100%
m-cGAS
  inhibition at 1 µM: 25 to 49%
  inhibition at 10 µM: 75 to 100%
h-cGAS
  inhibition at 1 µM: 25 to 49%
  inhibition at 10 µM: 50 to 74%

## NCC(=O)N1CCc2c(sc3c(Cl)c(Cl)cc(-c4nccs4)c23)C1 [Compound 84]
NFkB-SEAP
  inhibition at 10 µM: < 24%
  inhibition at 30 µM: 50 to 74%
THP1 cells
  Cell viability 10 μM: +++ (+, ++, and +++ mean the compound respectively shows 25-49%; 50-74%; or 75-100% viability to cells)
  Cell viability 30 μM: − (Cell viability <24%, in THP1 cells is expressed as “−”)
IFNB
  inhibition at 10 µM: 25 to 49%
  inhibition at 30 µM: 75 to 100%
m-cGAS
  inhibition at 1 µM: 0 to 24%
  inhibition at 10 µM: 50 to 74%
h-cGAS
  inhibition at 1 µM: 25 to 49%
  inhibition at 10 µM: 75 to 100%

## Nc1ccc(-c2cc(Cl)c(Cl)c3[nH]c4c(c23)CN(C(=O)[C@@H]2CCCN2)CC4)cn1 [Compound 16]
NFkB-SEAP
  inhibition at 10 µM: 75 to 100%
  inhibition at 30 µM: 75 to 100%
THP1 cells
  Cell viability 10 μM: +++ (+, ++, and +++ mean the compound respectively shows 25-49%; 50-74%; or 75-100% viability to cells)
  Cell viability 30 μM: + (+, ++, and +++ mean the compound respectively shows 25-49%; 50-74%; or 75-100% viability to cells)
IFNB
  inhibition at 10 µM: 75 to 100%
  inhibition at 30 µM: 75 to 100%
m-cGAS
  inhibition at 10 µM: 0 to 24%
h-cGAS
  inhibition at 10 µM: 75 to 100%

Source: patent US20250163052A1, “cGAS INHIBITORS AND USES THEREOF” (Cornell University, priority 2022, published 2025)
